# Reference: article PMC7883289, “Synthesis of Paeonol-Ozagrel Conjugate: Structure Characterization and In Vivo Anti-Ischemic Stroke potential” (Frontiers in Pharmacology, 2021)
# Experiments:
# [1] = system: middle cerebral artery occlusion (MCAO) rats; experiment: Measurement of infarct volume by TTC staining in MCAO rats; format: in vivo; settings: 24 h after reperfusion, single iv dose: paeonol and OS 3 mg/kg, POC 4.5 mg/kg, n = 6
# Protocol: Male Sprague Dawley (SD) rats weighing among 220 g-230 g (Anhui Medicine University, Hefei, China; certificate number: SCXK20190,003) were housed under ad libitum access to food and water with a standardized light-dark cycle condition (25 ± 2°C, 12-hour light/dark cycle). All the experimental protocols were performed in accordance with the Institutional Animal Care and Use Committee of Anhui University of Chinese Medicine (Animal ethics number: AHUCM-rats-2019001). We used the minimal number of study animals (n = 6 rats in each group for different experiments). The rats were fastened upon the operating table in a supine position after being anesthetized with 2% pelltobarbitalum natricum (50 mg/kg). After disinfection of the skin within close proximity of the operative region, the right common carotid artery (CCA), external carotid artery (ECA) and internal carotid artery (ICA) were exposed with blunt dissection. The CCA was temporarily ligated and the ECA were permanently ligated ([Liu et al., 2016]). A nylon monofilament surgical thread was introduced into the ICA to block the MCA when the blunted distal end met resistance. After 2 h of occlusion, reperfusion was accomplished to restore blood supply to the MCA area by removing the filament ([Li et al., 2009]; [Zhai et al., 2017]). […] Rats were split randomly into five groups, including the sham, model, paeonol, OS and POC group. After 2 h of reperfusion, the paeonol and OS groups received the drug by intravenous injection at a single dose of 3 mg/kg ([Imamura et al., 2003]; [Park et al., 2010]; [Gai et al., 2019]), which the doses of paeonol and OS uesd previously were benificial in rats and the dose of OS is within the clinical dose range. […] Cerebral infarction volume was determined using TTC staining. […] The infarction and total brain volume were quantified using ImageJ software. The infarct volume was calculated as a ratio of the infarcted tissue relative to the total area of the whole-brain coronal section ([Ye and Gao, 2008]; [Katayama et al., 2017]). […]
# [2] = system: middle cerebral artery occlusion (MCAO) rats; experiment: Evaluation of neurological deficit (Longa score) in MCAO rats; format: in vivo; settings: 24 h after reperfusion, single iv dose 2 h after reperfusion: paeonol and OS 3 mg/kg, POC 4.5 mg/kg, n = 6
# Protocol: Male Sprague Dawley (SD) rats weighing among 220 g-230 g (Anhui Medicine University, Hefei, China; certificate number: SCXK20190,003) were housed under ad libitum access to food and water with a standardized light-dark cycle condition (25 ± 2°C, 12-hour light/dark cycle). All the experimental protocols were performed in accordance with the Institutional Animal Care and Use Committee of Anhui University of Chinese Medicine (Animal ethics number: AHUCM-rats-2019001). We used the minimal number of study animals (n = 6 rats in each group for different experiments). The rats were fastened upon the operating table in a supine position after being anesthetized with 2% pelltobarbitalum natricum (50 mg/kg). After disinfection of the skin within close proximity of the operative region, the right common carotid artery (CCA), external carotid artery (ECA) and internal carotid artery (ICA) were exposed with blunt dissection. The CCA was temporarily ligated and the ECA were permanently ligated ([Liu et al., 2016]). A nylon monofilament surgical thread was introduced into the ICA to block the MCA when the blunted distal end met resistance. After 2 h of occlusion, reperfusion was accomplished to restore blood supply to the MCA area by removing the filament ([Li et al., 2009]; [Zhai et al., 2017]). […] Rats were split randomly into five groups, including the sham, model, paeonol, OS and POC group. […] Neurological deficit was evaluated 24 h after reperfusion (blinded to experimenters). […] The rating score was assessed by the following standard: no neurological deficit, 0; failure to extend left forepaw fully, one; spontaneous circling to the left, two; falling to the left, three; inability to walk spontaneously and coma of consciousness, 4. […] Neurological scores for each group were calculated using six rats according to a sample size calculation (α err prob = 0.05, 1-β err prob = 0.95) and references ([Katayama et al., 2017]; [[…] al., 2019]; [Zheng et al., 2019]).
smiles,measurement,setting,value
"O=C([O-])/C=C/c1ccc(Cn2ccnc2)cc1.[Na+] [OS, Ozagrel sodium]",cerebral infarction volume percentage,[1],18.68% ± 1.35
same,"neurological deficits score (Longa, 0-4)",[2],2.00 ± 0.63
COc1ccc(C(C)=O)c(O)c1 [paeonol],cerebral infarction volume percentage,[1],20.87% ± 1.43
same,"neurological deficits score (Longa, 0-4)",[2],2.50 ± 0.55
